This is an account of results in patent US20220023306A1, “USE OF A PPAR-DELTA AGONIST IN THE TREATMENT OF FATTY ACID OXIDATION DISORDERS (FAOD)” (Reneo Pharmaceuticals, Inc., priority 2019, published 2022).

One assay concerns the target T1, LXRα (Homo sapiens, UniProt Q13133).
T1 sequence (Q13133 1-447): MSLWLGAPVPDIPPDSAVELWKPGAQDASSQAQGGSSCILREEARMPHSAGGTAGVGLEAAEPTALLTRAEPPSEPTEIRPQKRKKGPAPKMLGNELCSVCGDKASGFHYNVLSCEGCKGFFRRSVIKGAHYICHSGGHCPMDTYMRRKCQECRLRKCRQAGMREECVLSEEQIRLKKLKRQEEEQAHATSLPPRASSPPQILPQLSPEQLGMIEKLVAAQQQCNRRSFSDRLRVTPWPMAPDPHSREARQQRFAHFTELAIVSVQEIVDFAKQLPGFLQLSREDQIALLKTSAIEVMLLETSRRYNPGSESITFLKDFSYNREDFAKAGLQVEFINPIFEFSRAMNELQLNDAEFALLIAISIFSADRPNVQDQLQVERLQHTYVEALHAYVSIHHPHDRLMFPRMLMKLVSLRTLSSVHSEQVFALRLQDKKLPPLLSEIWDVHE
Kind of assay: activity on nuclear receptor LXRα. Type of assay: cell-based.

In assay [1] the test system is very long-chain acyl-CoA dehydrogenase (VLCAD). Briefly: VLCAD enzymatic activity in cultured fibroblasts from symptomatic VLCAD-deficient FAOD patients (ETF fluorescence reduction ACAD activity assay). As to conditions: cultured fibroblasts from symptomatic patients with VLCAD deficiency. Type of assay: cell-based, human. The protocol:
Subjects. Skin biopsies for fibroblast culture are performed on a clinical basis with written informed consent from subjects and/or legal guardians. Fibroblast cells with mutations in any one of the genes and/or proteins associated with a fatty acid oxidation disorder (FAOD) ae obtained from patients' skin biopsies, while wild type (WT) fibroblast cells are obtained from healthy individuals.
Fibroblast cells, in some cases, are obtained from subjects with a confirmed diagnosis of a fatty acid oxidation disorder (FAOD) (e.g. MCAD, VLCAD, CPT1, CACT, CPT2, LCHAD, and/or mitochondrial TFP deficiencies or mutations) or they, in some cases, are purchased is available from commercial sources, e.g. from the Coriell Institute for Medical Research (403 Haddon Avenue, Camden, N.J. 08103).
Cell culture and treatments. Cells are grown in Dulbecco's Modified Eagle Medium (DMEM), Corning Life Sciences, Manassas, Va., containing high glucose levels or in DMEM devoid of glucose for 48-72 hr. Both media are supplemented with fetal bovine serum, glutamine, penicillin and/or streptomycin. In some experiments, fibroblasts are incubated with N-acetylcysteine, resveratrol, mitoQ, Trolox (a hydro-soluble analogue of vitamin E), or bezafibrate, prior to the analysis of parameters.
A PPARδ agonist compound is dissolved in phosphate buffer saline, PBS, as a stock solution. […]

The structures appear in SMILES notation.

As for `Cc1cc(OC/C=C(/c2ccc(F)cc2)c2ccc(C#CCN3CCOCC3)cc2)ccc1OCC(=O)O` [Compound 1, (E)-[4-[3-(4-Fluorophenyl)-3-[4-[3-(morpholin-4-yl)propynyl]phenyl]allyloxy]-2-methyl-phenoxy]acetic acid], the “activity on LXRα” value on LXRα was “did not show any”. Further, the VLCAD enzymatic activity result in assay [1] is on record as “increased”.
